According to patent US7915238B2, “Immunomodulatory compounds and methods of use thereof” (Eisai R & D Management Co., Ltd., priority 1999, dated 2011):
Several values for one entry are separate records, joined by “and”; a condition that tells them apart may be missing. Identical values can stand only once.

What was measured:
Nonadherent PBMC = experiment: Cytokine production by stimulated nonadherent human PBMC; assay type: cell-based; conditions: 50 nM, 24 hrs
[1] = tested on: B16F10 murine melanoma cells; experiment: Survival of melanoma-bearing mice, intratumoral GM-CSF cells with compound; assay type: in vivo, B6 mice; conditions: about 3-10 μg, combined with GM-CSF cells, vs untreated or GM-CSF cells alone, FIG. 8
Method: The effect of Compound 804057 on treatment of B6 mice that were engrafted subcutaneously with 1×10^6 syngeneic B16F10 murine melanoma cells was examined. When tumors became palpable, the mice were injected intratumorally with GM-CSF cells alone, or in combination with Compound 804057 (about 3-10 μg). Survival of the animals was monitored.

Adherent PBMC = experiment: Cytokine production by stimulated adherent human PBMC; assay type: cell-based; conditions: 50 nM
MUC1 IL-10−/− mice = experiment: MUC-1 vaccine with adjuvant in mice that develop IBD and colon adenocarcinoma; assay type: in vivo, mouse
Method: To test the effects of a MUC-1 vaccine with Compound 804057 adjuvant for treating inflammatory bowel disease (IBD) and subsequent development of colon adenocarcinoma, an engineered mouse strain that lacks the IL-10 gene and expresses transgenic human MUC1 was used. Such mice spontaneously develop intestinal inflammation resembling IBD followed by colon adenocarcinoma. […] 4, 2006.
In these experiments, mice were immunized intranasally with […] of Tn MUC100mer ([…])×5, SEQ ID NO:1) and […] of Compound 804057. Animals were vaccinated at about 4.5 weeks and boosted at about 6.5 weeks and 9 weeks.

Human Whole Blood = experiment: Cytokine release in human whole blood (ELISA); assay type: cell-based
Method: The most readily available human system to test compound activity on monocytes/macrophages is in whole blood. Various concentrations of compounds of the invention were added as 10× stocks in 50 μl of Ca^++, Mg^++-free Hank's balanced salt solution (HBSS) followed by 50 μl of HBSS into 400 μl of heparinized whole blood obtained from normal volunteers (18-51 years old; 110-230 lb.) into the wells of plastic assay plates, for a total volume of 500 μl/well (final concentration of whole blood was 80%). After a 3-hour incubation with gentle shaking at 37° C. in a 5% CO2 atmosphere, the assay plates were centrifuged at 1000×g for 10 min. at 4° C. and plasma was drawn off and frozen at −80° C. Plasma samples were analyzed for TNF-alpha, IL-10, and IL-12 by ELISA (Genzyme Corp., Cambridge, Mass.). Each assay point was tested in triplicate.
This stimulatory activity can be compared to that of 10 ng/ml endotoxin (or LPS) present in similar incubations in the same assay.

[2] = tested on: B16F10 murine melanoma cells; experiment: Survival of melanoma-bearing mice, i.p. compound with s.c. B16 GM-CSF cell vaccine; assay type: in vivo, B6 mice (C57BL6 mice); conditions: i.p. Compound 804057 combined with s.c. B16 GM-CSF cells, three days after tumor inoculation; FIG. 7
Text: To determine the effect of Compound 804057 when administered intraperitoneally with a cancer vaccine, e.g., granulocyte-macrophage colony stimulating factor (GM-CSF) secreting tumor cells, a mouse model using melanoma cells was used. Compound 804057 is a TLR-4 (Toll-like receptor-4) agonist. B6 mice (C57BL6 mice) were engrafted subcutaneously with […] murine melanoma cells. Three days after tumor cell inoculation, the mice were either (1) vaccinated subcutaneously (s.c.) with 1×10^6 B16F10 tumor cells that were genetically modified to stably express and secrete murine GM-CSF (B16-GM-CSF cells); (2) vaccinated intraperitoneally (i.p.) with Compound 804057; or (3) were treated with a combination of s.c. GM-CSF cell vaccination and i.p. Compound 804057 (the GM-CSF cell vaccination and Compound 804057 vaccination were administered at separate sites in the mice). In these experiments, the GM-CSF cells were inactivated by gamma-irradiation prior to inoculation. Survival of the animals was monitored.

EGFRvIII peptide = experiment: EGFRvIII peptide-specific antibody titers after immunization (ELISA); assay type: in vivo, C57/BL6J mice; conditions: s.c. with 25 μg peptide-KLH, 804057 3 μg, GM-CSF 5 μg
Text: To determine whether an adjuvant can enhance the effect of an oncology antigen (i.e., an antigen that can be used to vaccinate a subject individual against a cancer), C57/BL6J mice were immunized subcutaneously with a tumor-associated peptide, LEEKKGNYVVTDHC (SEQ ID NO:2) (derived from a mutant form of EGFR, […]) conjugated to the protein carrier keyhole limpet hemocyanin (KLH), with or without Compound 804057 or murine GM-CSF, a cytokine used in cancer vaccine trials to boost immune response. Compound 804057 was dosed at 3 μg, GM-CSF at 5 μg and the peptide-KLH conjugate at 25 μg per dose. Mice were immunized three times at intervals of three weeks. Serum was prepared from mice two weeks after each immunization and tested for […] peptide-specific antibodies using ELISA on plates coated with EGFRvIII peptide conjugated to bovine serum albumin. The results in Table 3 are presented as titers from individual animals. The titer is defined as the last serum dilution at which a signal at 0.25 OD units above background was observed.

Whole blood = experiment: IL-12p70 production in whole blood, 24 hrs (Table 2); assay type: cell-based, human; conditions: 50 nM
[3] = titer = last serum dilution 0.25 OD above background

SMILES: CCCCCCCCCCCC(=O)CC(=O)N[C@H](COCC[C@@H](CCCCCCC)OC(=O)CCCCCCCCCCC)COP(=O)([O-])OCCNC(=O)NCCOP(=O)([O-])OC[C@@H](COCC[C@@H](CCCCCCC)OC(=O)CCCCCCCCCCC)NC(=O)CC(=O)CCCCCCCCCCC.[Na+].[Na+] [ER 804057]
- Cytokine Production GM-CSF (Nonadherent PBMC): 353 pg/mL
- Cytokine Production IL-1α (Nonadherent PBMC): 108 pg/mL
- Cytokine Production IL-1β (Nonadherent PBMC): 431 pg/mL
- Cytokine Production Interferon-γ (Nonadherent PBMC): 331 pg/mL
- survival of tumor-bearing mice [1]: increased survival
- Cytokine Production IL-1α (Adherent PBMC; 4 hrs): 8 pg/mL
- Cytokine Production IL-1β (Adherent PBMC; 4 hrs): 55 pg/mL
- Cytokine Production IL-6 (Adherent PBMC; 4 hrs): 551 pg/mL
- Cytokine Production Interferon-α (Adherent PBMC; 4 hrs): 345 pg/mL
- Cytokine Production TNF-α (Adherent PBMC; 4 hrs): 3627 pg/mL
- Cytokine Production IL-10 (Adherent PBMC; 24 hrs): 175 pg/mL
- Cytokine Production Interferon-α (Adherent PBMC; 48 hrs): 175 pg/mL
- appearance of histologically detected tumors (MUC1 IL-10−/− mice; added to the MUC-1 vaccine): suppresses the appearance of histologically detected tumors
- progression to rectal prolapse associated with IBD (MUC1 IL-10−/− mice; added to the MUC-1 vaccine): can slow the progression to rectal prolapse associated with IBD
- Age (weeks) (MUC1 IL-10−/− mice; age of treated mice, Table 5): 12.5-18 weeks
- development of colon cancer (MUC1 IL-10−/− mice; intranasal with MUC-1 vaccine (Tn MUC100mer)): did not develop colon cancer
- onset of IBD (MUC1 IL-10−/− mice; intranasal with MUC-1 vaccine (Tn MUC100mer), FIG. 9): delayed onset of IBD or did not develop IBD
- survival (MUC1 IL-10−/− mice; intranasal with MUC-1 vaccine (Tn MUC100mer), FIG. 10): improved survival
- Colon tumors (MUC1 IL-10−/− mice; mice with tumors / mice treated): 3/3
- IL-10 release from blood-borne cells (Human Whole Blood; FIG. 2): stimulate blood-borne cells to release IL-10
- IL-12 release from blood-borne cells (Human Whole Blood; FIG. 2): stimulate blood-borne cells to release IL-12
- EC50 (Human Whole Blood; whole blood, vs. % of LPS at 10 ng/ml, read-out: WB ED50 vs LPS@ 10 ng/ml): 8 nM
- therapeutic efficacy (survival) of tumor-bearing mice [2]: enhanced the therapeutic efficacy of the GM-CSF cells
- Geometric mean titer, IgG1 (EGFRvIII peptide): 20182
- Antibody titers to EGFRvIII peptide, IgG1, individual animals (EGFRvIII peptide; [3]): 24000 (6×) and 48000 and 3000
- Antibody titers to EGFRvIII peptide, IgG2a, individual animals (EGFRvIII peptide; [3]): 6000 (2×) and 12000 (3×) and 24000 and 48000 and 1500
- Cytokine Production IL-12p70 (Whole blood): 1332 pg/mL
